Assay results reported in PubChem BioAssay (NCI).
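In this assay, cells in 96-well plates receive the compound at five concentrations for 48 hours. Endpoints are linearly interpolated between the surrounding concentrations. At the GI50, growth is halved. TGI: concentration producing complete growth inhibition.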

What was measured:
Test in all cases: inhibition of tumour cell growth, NCI panel, 48 h
[1] = tested on: ACHN renal
[2] = tested on: OVCAR-3 ovarian
[3] = tested on: HT29 colon
[4] = tested on: A498 renal
[5] = tested on: COLO 205 colon
[6] = tested on: IGROV1 ovarian
[7] = tested on: OVCAR-4 ovarian
[8] = tested on: NCI-H226 lung
[9] = tested on: SK-MEL-28 melanoma
[10] = tested on: XF 498 CNS
[11] = tested on: HOP-18 NSCLC
[12] = tested on: SK-MEL-2 melanoma
[13] = tested on: SR leukemia
[14] = tested on: KM20L2 colon
[15] = tested on: RXF 393 renal
[16] = tested on: EKVX NSCLC
[17] = tested on: NCI-H460 lung
[18] = tested on: MOLT-4 leukemia
[19] = tested on: RPMI-8226 leukemia
[20] = tested on: SNB-75 CNS
[21] = tested on: NCI-H23 lung
[22] = tested on: SF-268 CNS
[23] = tested on: SF-539 CNS
[24] = tested on: LOX IMVI melanoma
[25] = tested on: HCC-2998 colon
[26] = tested on: HOP-92 NSCLC
[27] = tested on: HOP-62 NSCLC
[28] = tested on: OVCAR-8 ovarian
[29] = tested on: SK-OV-3 ovarian
[30] = tested on: SNB-78 CNS
[31] = tested on: TK-10 renal
[32] = tested on: DMS 273 small cell lung
[33] = tested on: MALME-3M melanoma
[34] = tested on: NCI-H522 lung
[35] = tested on: M14 melanoma
[36] = tested on: CCRF-CEM leukemia
[37] = tested on: M19-MEL melanoma
[38] = tested on: A549 NSCLC
[39] = tested on: LXFL 529 NSCLC
[40] = tested on: HCT-116 colon
[41] = tested on: UO-31 renal
[42] = tested on: DLD-1 colon
[43] = tested on: SW-620 colon
[44] = tested on: K-562 leukemia
[45] = tested on: SN12C renal
[46] = tested on: 786-0 renal
[47] = tested on: CAKI-1 renal
[48] = tested on: OVCAR-5 ovarian
[49] = tested on: HL-60(TB) leukemia
[50] = tested on: UACC-62 melanoma
[51] = tested on: U251 CNS
[52] = tested on: KM12 colon
[53] = tested on: UACC-257 melanoma
[54] = tested on: SF-295 CNS
[55] = tested on: HCT-15 colon
[56] = tested on: SK-MEL-5 melanoma
[57] = tested on: DMS 114 small cell lung
[58] = tested on: SNB-19 CNS
[59] = tested on: MDA-MB-435
[60] = tested on: HS 578T breast
[61] = tested on: T-47D breast
[62] = tested on: BT-549 breast
[63] = tested on: MDA-MB-231 breast
[64] = tested on: MCF7 breast
[65] = tested on: PC-3 prostate
[66] = tested on: NCI/ADR-RES ovarian
[67] = tested on: DU-145 prostate

## CN(C)CC1CCCC/C1=N/OC(=O)c1ccc(Cl)cc1 (centres undefined)
[1]
  TGI: > 100 µM
[2]
  TGI: > 100 µM
[3]
  TGI: > 100 µM
[4]
  TGI: > 100 µM
[5]
  TGI: > 100 µM
[6]
  TGI: > 100 µM
[7]
  TGI: > 100 µM
[8]
  TGI: > 100 µM
[9]
  TGI: > 100 µM
[10]
  TGI: > 100 µM
[11]
  TGI: > 100 µM
[12]
  TGI: > 100 µM
[13]
  TGI: > 100 µM
[14]
  TGI: > 100 µM
[15]
  TGI: > 100 µM
[16]
  TGI: > 100 µM
[17]
  TGI: > 100 µM
[18]
  TGI: > 100 µM
[19]
  TGI: > 100 µM
[20]
  TGI: > 100 µM
[21]
  TGI: > 100 µM
[22]
  TGI: > 100 µM
[23]
  TGI: > 100 µM
[24]
  TGI: > 100 µM
[25]
  TGI: > 100 µM
[26]
  TGI: > 100 µM
[27]
  TGI: > 100 µM
[28]
  TGI: > 100 µM
[29]
  TGI: > 100 µM
[30]
  TGI: > 100 µM
[31]
  TGI: > 100 µM
[32]
  TGI: > 100 µM
[33]
  TGI: > 100 µM
[34]
  TGI: > 100 µM
[35]
  TGI: > 100 µM
[36]
  TGI: > 100 µM
[37]
  TGI: > 100 µM
[38]
  TGI: > 100 µM
[39]
  TGI: > 100 µM
[40]
  TGI: > 100 µM
[41]
  TGI: > 100 µM
[42]
  TGI: > 100 µM
[43]
  TGI: > 100 µM
[44]
  TGI: > 100 µM
[45]
  TGI: > 100 µM
[46]
  TGI: > 100 µM
[47]
  TGI: > 100 µM
[48]
  TGI: > 100 µM
[49]
  TGI: > 100 µM
[50]
  TGI: > 100 µM
[51]
  TGI: > 100 µM
[52]
  TGI: > 100 µM
[53]
  TGI: > 100 µM
[54]
  TGI: > 100 µM
[55]
  TGI: > 100 µM

## S=c1sc2c(Cl)nc(Cl)nc2n1-c1ccccc1
[1]
  TGI: > 100 µM
[56]
  TGI: > 100 µM
[2]
  TGI: 60.4 µM
[3]
  TGI: > 100 µM
[4]
  TGI: > 100 µM
[5]
  TGI: > 100 µM
[6]
  TGI: 33.6 µM
[7]
  TGI: > 100 µM
[8]
  TGI: > 100 µM
[9]
  TGI: 29 µM
[10]
  TGI: > 100 µM
[11]
  TGI: > 100 µM
[12]
  TGI: > 100 µM
[13]
  TGI: 55.1 µM
[14]
  TGI: > 100 µM
[15]
  TGI: 50.6 µM
[16]
  TGI: > 100 µM
[17]
  TGI: > 100 µM
[18]
  TGI: > 100 µM
[19]
  TGI: > 100 µM
[20]
  TGI: > 100 µM
[21]
  TGI: 32.9 µM
[22]
  TGI: 23.2 µM
[23]
  TGI: > 100 µM
[24]
  TGI: > 100 µM
[25]
  TGI: > 100 µM
[26]
  TGI: > 100 µM
[27]
  TGI: > 100 µM
[28]
  TGI: > 100 µM
[29]
  TGI: > 100 µM
[30]
  TGI: > 100 µM
[31]
  TGI: > 100 µM
[32]
  TGI: > 100 µM
[33]
  TGI: > 100 µM
[34]
  TGI: 23.8 µM
[35]
  TGI: 43 µM
[36]
  TGI: 75.8 µM
[37]
  TGI: 29.9 µM
[38]
  TGI: > 100 µM
[39]
  TGI: 31.7 µM
[40]
  TGI: 31.1 µM
[41]
  TGI: > 100 µM
[42]
  TGI: 29.9 µM
[43]
  TGI: 68.1 µM
[44]
  TGI: > 100 µM
[45]
  TGI: > 100 µM
[57]
  TGI: 27.3 µM
[46]
  TGI: > 100 µM
[47]
  TGI: > 100 µM
[48]
  TGI: > 100 µM
[58]
  TGI: > 100 µM
[49]
  TGI: 82.6 µM
[50]
  TGI: 27.8 µM
[51]
  TGI: 98 µM
[52]
  TGI: > 100 µM
[53]
  TGI: > 100 µM
[54]
  TGI: > 100 µM
[55]
  TGI: 32 µM

## CC(=O)OC12C=CC(=O)N1c1ccccc1C(=O)O2 (centres undefined)
[1]
  TGI: > 100 µM
[56]
  TGI: > 100 µM
[2]
  TGI: > 100 µM
[3]
  TGI: > 100 µM
[4]
  GI50: > 100 µM
  TGI: > 100 µM
[5]
  TGI: > 100 µM
[6]
  TGI: > 100 µM
[7]
  TGI: > 100 µM
[59]
  GI50: > 100 µM
  TGI: > 100 µM
[60]
  GI50: > 100 µM
  TGI: > 100 µM
[8]
  TGI: > 100 µM
[61]
  GI50: > 100 µM
  TGI: > 100 µM
[9]
  TGI: > 100 µM
[62]
  GI50: > 100 µM
  TGI: > 100 µM
[10]
  TGI: > 100 µM
[11]
  TGI: > 100 µM
[12]
  TGI: > 100 µM
[13]
  TGI: > 100 µM
[63]
  GI50: > 100 µM
  TGI: > 100 µM
[14]
  TGI: > 100 µM
[15]
  TGI: > 100 µM
[16]
  TGI: > 100 µM
[64]
  GI50: > 100 µM
  TGI: > 100 µM
[17]
  TGI: > 100 µM
[18]
  TGI: > 100 µM
[19]
  TGI: > 100 µM
[20]
  TGI: > 100 µM
[65]
  GI50: > 100 µM
  TGI: > 100 µM
[21]
  TGI: > 100 µM
[22]
  TGI: > 100 µM
[23]
  TGI: > 100 µM
[24]
  TGI: > 100 µM
[25]
  TGI: > 100 µM
[26]
  TGI: > 100 µM
[27]
  TGI: > 100 µM
[28]
  TGI: > 100 µM
[29]
  TGI: > 100 µM
[30]
  TGI: > 100 µM
[31]
  TGI: > 100 µM
[32]
  TGI: > 100 µM
[33]
  TGI: > 85.8 µM
[34]
  TGI: > 100 µM
[35]
  TGI: > 100 µM
[36]
  TGI: > 100 µM
[37]
  TGI: > 100 µM
[38]
  TGI: > 100 µM
[39]
  TGI: > 100 µM
[40]
  TGI: > 100 µM
[41]
  TGI: > 100 µM
[42]
  TGI: > 100 µM
[43]
  TGI: > 100 µM
[66]
  GI50: > 100 µM
  TGI: > 100 µM
[44]
  TGI: > 100 µM
[45]
  TGI: > 100 µM
[46]
  TGI: > 100 µM
[47]
  TGI: > 100 µM
[48]
  TGI: > 100 µM
[58]
  TGI: > 100 µM
[49]
  TGI: > 100 µM
[67]
  GI50: > 100 µM
  TGI: > 100 µM
[50]
  TGI: > 100 µM
[51]
  TGI: > 100 µM
[52]
  TGI: > 100 µM
[53]
  TGI: > 100 µM
[54]
  TGI: > 100 µM
[55]
  TGI: > 100 µM
